# Experimental data taken from patent US20230028414A1, “DOSING REGIMEN OF KRAS G12C INHIBITOR” (AMGEN INC., priority 2019, published 2023).
# Assays:
# [1] = test system: other tumor types (appendiceal cancer, unknown primary cancer); assay: Phase 1 tumor response by RECIST 1.1, patients with other tumor types; assay type: in vivo, human; settings: 2 evaluable patients with appendiceal cancer
# From the text: A complete response (CR) is disappearance of all target lesions and any pathological lymph nodes have a reduction in short axis to less than 10 mm. A partial response (PR) is at least a 30% decrease in the sum of diameters of target lesions, taking as reference the baseline sum diameters. A progressive disease is at least a 20% increase in the sum of diameters of target lesions, taking as reference the smallest sum on study (including the baseline sum if that is the smallest on study), and there must be an absolute increase of at least 5 mm in addition to the relative increase of 20%. A stable disease is neither sufficient shrinkage to qualify for PR nor sufficient increase to qualify for PD. […] The tumor size can be measured by radiographic scan.
# FIG. 2. […] Target lesions are measurable lesions defined by RECIST 1.1. Non-measurable lesions, as defined by RECIST 1.1, are considered non-target lesions. A PR is defined as at least a 30% decrease in the sum of the diameters of target lesions using the baseline sum of diameters as a reference. […]
# As of the data cutoff of Jul. […] The tumor types of two patients were re-classified after the cutoff: 1 patient who was initially recorded as having NSCLC had unknown primary cancer, and 1 patient who was initially recorded as having other tumor types had NSCLC. […]
# Tumor response was evaluated using RECIST 1.1. […]
# [2] = Phase 1 safety and treatment exposure, all enrolled patients; assay type: in vivo
# From the text: A subject undergoing a therapy is monitored for adverse events (AE) during the course of the therapy. A treatment related AE is an AE that is related to the treatment drug. A treatment emergent AE is one that a subject develops undergoing the treatment that was not present prior to start of therapy. In some cases, the treatment emergent AE is not or suspected not to be related to the treatment itself. AEs are characterized as one of five grades—grade 1 is a mile AE; grade 2 is a moderate AE; grade 3 is a severe AE; grade 4 is a life-threatening or disabling AE; and grade 5 is death related to AE.
# The grading of AEs is based on the guidelines provided in the CTCAE version 5.0. AEs for DLT assessment:
# Hematological toxicity: Febrile neutropenia; Neutropenic infection; Grade 4 neutropenia; Grade≥3 thrombocytopenia for>7 days; Grade 3 thrombocytopenia with grade≥2 bleeding; Grade 4 thrombocytopenia; Grade 4 Anemia Non-hematological toxicity Grade≥4, vomiting or diarrhea; Grade 3 diarrhea or grade 3 vomiting lasting more than 3 days despite optimal medical support; Grade≥3 nausea for 3 days or more despite optimal medical support; Any other grade≥3 AE
# [3] = Phase 1 pharmacokinetics of Compound A at 960 mg once daily; assay type: in vivo, human; settings: patients
# KRAS p.G12C tumors = assay: Preclinical anti-tumor efficacy; assay type: in vivo; settings: immune-competent mice
# From the text: KRAS is the most frequently mutated oncogene in human cancer and encodes a key signaling protein in tumors.
# [4] = 76 enrolled patients, all doses
compound,measurement,setting,value
"C=CC(=O)N1CCN(c2nc(=O)n(-c3c(C)ccnc3C(C)C)c3nc(-c4c(O)cccc4F)c(F)cc23)[C@@H](C)C1 [Compound A, 4-((S)-4-acryloyl-2-methylpiperazin-1-yl)-6-fluoro-7-(2-fluoro-6-hydroxyphenyl)-1-(2-isopropyl-4-methylpyridin-3-yl)pyrido[2,3-d]pyrimidin-2(1H)-one]",tumor response,[1],PR (unconfirmed) and SD
same,deaths related to treatment,[2]; 7 deaths among 76 enrolled patients,none
same,patients with treatment-related grade 3 AEs,[2]; [4],7 patients
same,"patients with treatment-related grade 3 AEs, percent",[2]; [4],9.2%
same,tolerability,[2]; consistent across all doses,well tolerated with mild treatment-related toxicities
same,treatment-related AEs higher than grade 3 or cumulative toxicities,"[2]; extended treatment, all doses",no treatment-related AEs higher than grade 3 or cumulative toxicities were observed
same,24-hour area under the curve,[3],65300 ng·h/mL
same,time of peak exposure after administration,[3],around 2 hours
same,anti-tumor effect in combination with immune checkpoint inhibition,KRAS p.G12C tumors,durable cures
